Patent US20260083134A1, “MEANS AND METHODS FOR CONTROLLING PATHOGENS AND PESTS IN PLANTS” (APHEA.BIO NV, priority 2020, published 2026)

What was measured:
Assay type in all cases: cell-based
[1] = test system: Puccinia striiformis; test: Puccinia striiformis liquid-based screening assay of extract fractions; conditions: compound identified in active HPLC fraction; active when percentage of inhibition superior to 50%
[2] = test system: Zymoseptoria tritici
[3] = test system: Fusarium graminearum; conditions: compound identified in active HPLC fraction; active when halo diameter superior to 5 mm

Compound	Active against: [1]	Active against: [2]	Active against: [3]
Enactin Ia/Ib	P. striiformis	Z. tritici	F. graminearum
CCCCCCCCCCCCCC(=O)NCCC[N+](C)(C)CC(=O)[O-] [N-Myristylamidopropyl-N,N-dimethylbetaine]	P. striiformis	Z. tritici	F. graminearum
Albofungin	P. striiformis	Z. tritici	F. graminearum
Lauramidopropyl betaine	P. striiformis	Z. tritici	F. graminearum
C=C/C(C)=C/[C@H](C)C(=O)C[C@H](O)CC1CC(=O)NC(=O)C1 [Streptimidone]	P. striiformis	Z. tritici	F. graminearum
C[C@@H]1C/C=C/C=C/C=C/C=C/[C@H](O[C@@H]2O[C@H](C)[C@@H](O)[C@H](N)[C@@H]2O)C[C@@H]2O[C@](O)(C[C@@H](O)C[C@H]3O[C@@H]3/C=C/C(=O)O1)C[C@H](O)[C@H]2C(=O)O [Pimaricin/Natamycin, Pimaricin, reference compound]	P. striiformis	Z. tritici	F. graminearum
